Test results as given in article PMC9851200, “Multiparameter phenotypic screening for endogenous TFEB and TFE3 translocation identifies novel chemical series modulating lysosome function” (Autophagy, 2022).
Where two headings read alike, the source gives them in different places.

Columns and labels:
Test in all cases: biochemical
Assay type in all cases: binding
[1] = target: cellular kinases of SH-SY5Y cells (Homo sapiens, UniProt P06493); conditions: 2µM; SH-SY5Y cells; Labeling Site Lys2; DLKPQNLLIDDK; read-out: KiNativ in-cell binding, % Inhibition, CDK1/CDC2
Description: (§1) As KINOMEscan is an in vitro assay, and as different cell types have variable kinase expression profiles we sought to determine the kinase binding profile in our SH-SY5Y TFEB-relocalization cell model. […] Bound kinases were pulled down and analyzed by mass spectrometry to determine the in situ kinase binding profile for each compound.

[2] = target: T1, cellular kinases of SH-SY5Y cells (Homo sapiens, UniProt P16591); conditions: 2µM, SH-SY5Y cells
T1 construct: endogenous in cells; host or cells: SH-SY5Y
Description: as §1

[3] = target: T2, cellular kinases of SH-SY5Y cells (Homo sapiens, UniProt P23458); conditions: 2µM, SH-SY5Y cells
T2 construct: endogenous in cells; host or cells: SH-SY5Y
Description: as §1

[4] = target: T3, cellular kinases of SH-SY5Y cells (Homo sapiens, UniProt P48426); conditions: 2µM; SH-SY5Y cells; Labeling Site ATP; AKELPTLKDNDFINEGQK; read-out: KiNativ in-cell binding, % Inhibition, PIP4K2A
T3 construct: endogenous in cells; host or cells: SH-SY5Y
Description: as §1

[5] = target: cellular kinases of SH-SY5Y cells (Homo sapiens, UniProt P49841); conditions: read-out: KiNativ in-cell binding, % Inhibition, GSK3B
Description: as §1

[6] = target: cellular kinases of SH-SY5Y cells (Homo sapiens, UniProt P50750); conditions: 2µM, SH-SY5Y cells, read-out: KiNativ in-cell binding, % Inhibition, CDK9
Description: as §1

[7] = target: cellular kinases of SH-SY5Y cells (Homo sapiens, UniProt P51812); conditions: 2µM; SH-SY5Y cells; Labeling Site Lys2; DLKPSNILYVDESGNPESIR; read-out: KiNativ in-cell binding, % Inhibition, RPS6KA3/RSK2 domain2
Description: as §1

[8] = target: T4, cellular kinases of SH-SY5Y cells (Homo sapiens, UniProt P51956); conditions: 2µM; SH-SY5Y cells; Labeling Site Activation Loop; SKNIFLTQNGK; read-out: KiNativ in-cell binding, % Inhibition, NEK3
T4 construct: endogenous in cells; host or cells: SH-SY5Y
Description: as §1

[9] = target: cellular kinases of SH-SY5Y cells (Homo sapiens, UniProt P78368); conditions: 2µM; SH-SY5Y cells; Labeling Site Lys2; DVKPENFLVGRPGTK; read-out: KiNativ in-cell binding, % Inhibition, CSNK1G2/CK1g2
Description: as §1

[10] = target: T5, cellular kinases of SH-SY5Y cells (Homo sapiens, UniProt Q13188); conditions: 2µM; SH-SY5Y cells; Labeling Site Lys1; ESGQVVAIKQVPVESDLQEIIK; read-out: KiNativ in-cell binding, % Inhibition, STK3/MST2
T5 construct: endogenous in cells; host or cells: SH-SY5Y
Description: as §1

[11] = target: cellular kinases of SH-SY5Y cells (Homo sapiens, UniProt Q13535); conditions: 2µM; SH-SY5Y cells; Labeling Site ATP; FYIMMCKPK; read-out: KiNativ in-cell binding, % Inhibition, ATR
Description: as §1

[12] = target: T6, cellular kinases of SH-SY5Y cells (Homo sapiens, UniProt Q14004); conditions: read-out: KiNativ in-cell binding, % Inhibition, CDK13/CHED
T6 construct: endogenous in cells; host or cells: SH-SY5Y
Description: as §1

[13] = target: T7, cellular kinases of SH-SY5Y cells (Homo sapiens, UniProt Q14680); conditions: 2µM; SH-SY5Y cells; Labeling Site Lys2; DLKPENLLFDEYHK; read-out: KiNativ in-cell binding, % Inhibition, MELK
T7 construct: endogenous in cells; host or cells: SH-SY5Y
Description: as §1

[14] = target: T8, cellular kinases of SH-SY5Y cells (Homo sapiens, UniProt Q15418); conditions: 2µM, SH-SY5Y cells
T8 construct: endogenous in cells; host or cells: SH-SY5Y
Description: as §1

[15] = target: cellular kinases of SH-SY5Y cells (Homo sapiens, UniProt Q2M2I8); conditions: 2µM; SH-SY5Y cells; labeling site Lys2; peptide DLKVENILLHDR
Description: as §1

[16] = target: T9, cellular kinases of SH-SY5Y cells (Homo sapiens, UniProt Q6PHR2); conditions: 2µM; SH-SY5Y cells; labeling site Lys1; peptide EVVAIKCVAK
T9 construct: endogenous in cells; host or cells: SH-SY5Y
Description: as §1

[17] = target: T10, cellular kinases of SH-SY5Y cells (Homo sapiens, UniProt Q96PY6); conditions: 2µM; SH-SY5Y cells; Labeling Site Lys2; DIKSQNIFLTK; read-out: KiNativ in-cell binding, % Inhibition, NEK1
T10 construct: endogenous in cells; host or cells: SH-SY5Y
Description: as §1

[18] = target: cellular kinases of SH-SY5Y cells (Homo sapiens, UniProt Q99683); conditions: 2µM; SH-SY5Y cells; Labeling Site Lys2; DIKGDNVLINTYSGVLK; read-out: KiNativ in-cell binding, % Inhibition, MAP3K5
Description: as §1

[19] = target: T11, cellular kinases of SH-SY5Y cells (Homo sapiens, UniProt Q9C0K7); conditions: 2µM; SH-SY5Y cells; labeling site Lys1; peptide HTPTGTLVTIKITNLENCNEER
T11 construct: endogenous in cells; host or cells: SH-SY5Y
Description: as §1

[20] = target: T12, cellular kinases of SH-SY5Y cells (Homo sapiens, UniProt Q9Y2I7); conditions: 2µM; SH-SY5Y cells; Labeling Site ATP; GGKSGAAFYATEDDRFILK; read-out: KiNativ in-cell binding, % Inhibition, PIKFYVE
T12 construct: endogenous in cells; host or cells: SH-SY5Y
Description: as §1

[21] = target: cellular kinases of SH-SY5Y cells (Homo sapiens, UniProt Q9Y2U5); conditions: 2µM; SH-SY5Y cells; Labeling Site Lys1; ELAVKQVQFDPDSPETSKEVNALECEIQLLK; read-out: KiNativ in-cell binding, % Inhibition, MAP3K2
Description: as §1

T8 sequence (Q15418 whole entry): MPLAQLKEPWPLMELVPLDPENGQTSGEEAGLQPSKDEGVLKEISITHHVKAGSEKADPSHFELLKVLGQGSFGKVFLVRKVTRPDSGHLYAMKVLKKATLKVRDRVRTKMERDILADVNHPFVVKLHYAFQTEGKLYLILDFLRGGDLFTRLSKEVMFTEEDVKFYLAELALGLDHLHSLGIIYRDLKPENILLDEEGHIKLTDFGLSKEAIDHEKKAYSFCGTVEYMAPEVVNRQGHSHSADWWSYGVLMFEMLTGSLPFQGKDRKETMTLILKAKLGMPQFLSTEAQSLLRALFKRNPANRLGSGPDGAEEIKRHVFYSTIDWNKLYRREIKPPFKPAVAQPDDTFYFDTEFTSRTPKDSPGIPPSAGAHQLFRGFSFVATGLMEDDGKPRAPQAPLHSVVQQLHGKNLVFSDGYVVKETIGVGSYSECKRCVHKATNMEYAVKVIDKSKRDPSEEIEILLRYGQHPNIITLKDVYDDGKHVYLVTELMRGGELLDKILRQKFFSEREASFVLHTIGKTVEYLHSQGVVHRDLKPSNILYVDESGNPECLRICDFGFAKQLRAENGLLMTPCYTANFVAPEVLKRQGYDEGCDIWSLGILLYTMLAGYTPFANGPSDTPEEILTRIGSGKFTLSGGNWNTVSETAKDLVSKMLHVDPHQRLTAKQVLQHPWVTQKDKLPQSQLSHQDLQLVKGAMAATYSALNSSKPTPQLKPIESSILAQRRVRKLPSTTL
T2 sequence (P23458 whole entry): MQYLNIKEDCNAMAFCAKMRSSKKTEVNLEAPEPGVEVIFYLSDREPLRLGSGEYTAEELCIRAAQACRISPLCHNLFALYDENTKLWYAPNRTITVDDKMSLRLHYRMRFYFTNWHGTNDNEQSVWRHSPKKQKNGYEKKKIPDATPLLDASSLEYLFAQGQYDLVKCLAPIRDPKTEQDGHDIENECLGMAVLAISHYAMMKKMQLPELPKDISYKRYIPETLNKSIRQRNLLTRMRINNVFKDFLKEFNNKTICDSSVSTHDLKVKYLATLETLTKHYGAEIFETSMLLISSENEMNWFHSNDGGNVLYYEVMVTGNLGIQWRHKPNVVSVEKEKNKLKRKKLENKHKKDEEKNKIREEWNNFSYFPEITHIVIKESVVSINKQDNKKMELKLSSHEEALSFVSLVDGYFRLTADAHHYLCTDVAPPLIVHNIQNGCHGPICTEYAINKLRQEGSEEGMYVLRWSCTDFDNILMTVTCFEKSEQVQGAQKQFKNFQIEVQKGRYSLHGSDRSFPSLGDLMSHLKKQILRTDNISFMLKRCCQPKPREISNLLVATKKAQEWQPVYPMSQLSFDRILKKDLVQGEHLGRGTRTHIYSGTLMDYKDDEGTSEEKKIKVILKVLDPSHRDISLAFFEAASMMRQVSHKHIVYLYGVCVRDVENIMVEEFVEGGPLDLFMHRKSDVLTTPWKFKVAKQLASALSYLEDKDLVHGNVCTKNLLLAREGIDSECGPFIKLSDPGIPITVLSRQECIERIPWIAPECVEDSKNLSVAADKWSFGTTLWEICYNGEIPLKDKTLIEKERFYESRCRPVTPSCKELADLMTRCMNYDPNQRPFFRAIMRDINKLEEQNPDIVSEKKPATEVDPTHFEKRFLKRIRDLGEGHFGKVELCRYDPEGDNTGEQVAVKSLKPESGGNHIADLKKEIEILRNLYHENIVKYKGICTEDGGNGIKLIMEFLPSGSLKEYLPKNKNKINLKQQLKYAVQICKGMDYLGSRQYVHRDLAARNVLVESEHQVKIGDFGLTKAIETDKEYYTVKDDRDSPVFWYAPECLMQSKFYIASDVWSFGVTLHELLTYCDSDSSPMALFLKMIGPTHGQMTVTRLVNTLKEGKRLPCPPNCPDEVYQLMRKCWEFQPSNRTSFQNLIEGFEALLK
T1 sequence (P16591 whole entry): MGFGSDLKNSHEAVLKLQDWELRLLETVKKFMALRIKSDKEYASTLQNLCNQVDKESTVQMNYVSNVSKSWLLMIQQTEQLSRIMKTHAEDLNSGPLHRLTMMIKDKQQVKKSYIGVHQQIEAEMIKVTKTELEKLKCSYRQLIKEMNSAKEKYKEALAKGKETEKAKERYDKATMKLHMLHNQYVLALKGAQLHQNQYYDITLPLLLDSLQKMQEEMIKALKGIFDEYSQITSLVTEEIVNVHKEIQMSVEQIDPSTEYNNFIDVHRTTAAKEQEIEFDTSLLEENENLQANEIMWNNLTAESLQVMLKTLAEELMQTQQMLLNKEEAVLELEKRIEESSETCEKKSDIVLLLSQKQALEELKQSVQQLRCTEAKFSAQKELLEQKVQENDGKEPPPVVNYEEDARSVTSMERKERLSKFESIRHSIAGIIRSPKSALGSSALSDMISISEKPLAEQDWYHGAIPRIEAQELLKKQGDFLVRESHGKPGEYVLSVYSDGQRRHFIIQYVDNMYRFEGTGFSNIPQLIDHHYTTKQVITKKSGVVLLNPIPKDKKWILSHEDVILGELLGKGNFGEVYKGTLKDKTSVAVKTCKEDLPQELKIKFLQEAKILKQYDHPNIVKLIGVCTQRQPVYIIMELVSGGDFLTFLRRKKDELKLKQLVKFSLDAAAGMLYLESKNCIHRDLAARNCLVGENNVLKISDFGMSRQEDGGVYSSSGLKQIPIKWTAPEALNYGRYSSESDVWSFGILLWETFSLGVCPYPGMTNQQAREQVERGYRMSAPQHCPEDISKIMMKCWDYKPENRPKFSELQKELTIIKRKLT
Sequence of cellular kinases of SH-SY5Y cells (Homo sapiens, UniProt P50750) (P50750 whole entry): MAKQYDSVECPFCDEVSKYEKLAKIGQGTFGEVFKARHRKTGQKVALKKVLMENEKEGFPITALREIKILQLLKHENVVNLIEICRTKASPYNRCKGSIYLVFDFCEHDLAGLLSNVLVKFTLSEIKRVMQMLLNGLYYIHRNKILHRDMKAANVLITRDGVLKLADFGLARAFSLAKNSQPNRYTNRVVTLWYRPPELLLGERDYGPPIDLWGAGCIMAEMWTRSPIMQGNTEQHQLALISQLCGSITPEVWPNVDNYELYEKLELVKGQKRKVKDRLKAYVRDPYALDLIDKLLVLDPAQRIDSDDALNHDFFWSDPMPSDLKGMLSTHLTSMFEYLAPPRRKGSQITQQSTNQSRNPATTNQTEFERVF
T4 sequence (P51956 whole entry): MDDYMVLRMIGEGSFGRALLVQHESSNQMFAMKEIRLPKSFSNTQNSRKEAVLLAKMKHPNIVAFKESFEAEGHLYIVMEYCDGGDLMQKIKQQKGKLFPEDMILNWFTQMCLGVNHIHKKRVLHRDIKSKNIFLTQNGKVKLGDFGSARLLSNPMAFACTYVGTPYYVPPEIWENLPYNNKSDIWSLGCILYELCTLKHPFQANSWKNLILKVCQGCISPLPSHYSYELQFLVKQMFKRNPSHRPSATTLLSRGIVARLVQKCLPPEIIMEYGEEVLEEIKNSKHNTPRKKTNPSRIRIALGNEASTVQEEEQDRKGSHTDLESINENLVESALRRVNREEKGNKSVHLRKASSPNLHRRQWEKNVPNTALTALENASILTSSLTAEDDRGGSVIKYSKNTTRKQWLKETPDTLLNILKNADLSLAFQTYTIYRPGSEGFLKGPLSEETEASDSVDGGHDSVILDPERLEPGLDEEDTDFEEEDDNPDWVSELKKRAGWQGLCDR
T9 sequence (Q6PHR2 whole entry): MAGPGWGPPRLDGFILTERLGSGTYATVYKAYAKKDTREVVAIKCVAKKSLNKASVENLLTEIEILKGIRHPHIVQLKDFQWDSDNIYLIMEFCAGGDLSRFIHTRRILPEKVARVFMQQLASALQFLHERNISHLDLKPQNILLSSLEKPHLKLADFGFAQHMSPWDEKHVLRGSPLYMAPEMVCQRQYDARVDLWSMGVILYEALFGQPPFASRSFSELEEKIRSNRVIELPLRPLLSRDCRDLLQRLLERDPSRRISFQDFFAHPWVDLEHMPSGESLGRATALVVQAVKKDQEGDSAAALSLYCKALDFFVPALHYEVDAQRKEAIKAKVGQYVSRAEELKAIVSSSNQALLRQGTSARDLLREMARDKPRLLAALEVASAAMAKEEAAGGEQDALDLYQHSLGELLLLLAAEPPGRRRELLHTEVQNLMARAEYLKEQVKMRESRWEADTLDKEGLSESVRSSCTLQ
T11 sequence (Q9C0K7 whole entry): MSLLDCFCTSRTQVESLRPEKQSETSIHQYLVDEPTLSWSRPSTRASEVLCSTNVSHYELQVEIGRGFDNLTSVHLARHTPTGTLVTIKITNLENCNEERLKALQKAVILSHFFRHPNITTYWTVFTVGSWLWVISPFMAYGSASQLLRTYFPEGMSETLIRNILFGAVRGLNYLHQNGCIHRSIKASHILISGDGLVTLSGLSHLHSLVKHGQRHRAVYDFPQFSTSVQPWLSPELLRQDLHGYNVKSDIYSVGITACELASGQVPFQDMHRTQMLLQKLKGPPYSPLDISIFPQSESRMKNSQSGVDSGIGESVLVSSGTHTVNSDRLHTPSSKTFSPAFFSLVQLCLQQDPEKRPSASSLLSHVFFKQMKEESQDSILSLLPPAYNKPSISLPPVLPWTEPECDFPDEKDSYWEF
T5 sequence (Q13188 whole entry): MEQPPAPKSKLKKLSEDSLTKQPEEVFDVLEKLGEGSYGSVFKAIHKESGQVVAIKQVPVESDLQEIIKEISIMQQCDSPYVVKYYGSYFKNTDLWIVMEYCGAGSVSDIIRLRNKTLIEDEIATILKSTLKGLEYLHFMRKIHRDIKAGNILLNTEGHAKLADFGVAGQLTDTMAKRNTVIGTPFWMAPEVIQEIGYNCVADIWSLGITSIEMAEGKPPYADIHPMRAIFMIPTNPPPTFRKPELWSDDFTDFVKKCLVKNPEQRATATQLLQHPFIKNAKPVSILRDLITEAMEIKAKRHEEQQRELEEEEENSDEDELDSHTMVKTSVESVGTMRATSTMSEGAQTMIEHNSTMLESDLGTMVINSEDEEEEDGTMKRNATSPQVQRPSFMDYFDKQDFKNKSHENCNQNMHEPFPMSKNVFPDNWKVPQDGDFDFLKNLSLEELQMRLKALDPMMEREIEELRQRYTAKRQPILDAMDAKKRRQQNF

For `Cc1cccc(-c2nc(Nc3ccc4ncsc4c3)c3ccccc3n2)n1` [NK140], the inhibition at 2 µM [1] was -2.3%, the “KiNativ in-cell binding, FER” value ([2]; labeling site Activation Loop, peptide QEDGGVYSSSGLKQIPIK) was -42.5 and the “KiNativ in-cell binding, FER” value ([2]; labeling site Lys1, peptide TSVAVKTCKEDLPQELK) was -53.4. The inhibition at 2 µM ([3]; Labeling Site Lys1, YDPEGDNTGEQVAVKSLKPESGGNHIADLKK, read-out: KiNativ in-cell binding, % Inhibition, JAK1 domain2) was 2.4%, the “KiNativ in-cell binding, JAK1 domain2” value ([3]; labeling site Activation Loop, peptide IGDFGLTKAIETDKEYYTVK) was -56.1 and the inhibition at 2 µM [4] was 29.7%. The inhibition at 2 µM [5] was 15.8%, the inhibition at 2 µM ([6]; Labeling Site ATP Loop, IGQGTFGEVFKAR) was 2.1% and the inhibition at 2 µM ([6]; Labeling Site Lys2, DMKAANVLITR) was -6%. For the same molecule, the inhibition at 2 µM [7] was -54.8%, the inhibition at 2 µM [8] was -13.4% and the inhibition at 2 µM [9] was 1.8%. It also gave an inhibition at 2 µM [10] of 31.6%, an inhibition at 2 µM [11] of -42.5% and an inhibition at 2 µM [12] of -3.7%. The inhibition at 2 µM [13] was -40.7%, the inhibition at 2 µM ([14]; Labeling Site Activation Loop, LTDFGLSKEAIDHEKK, read-out: KiNativ in-cell binding, % Inhibition, RPS6KA1/RSK1 domain1) was -25.4% and the inhibition at 2 µM ([14]; Labeling Site Lys2, DLKPSNILYVDESGNPECLR, read-out: KiNativ in-cell binding, % Inhibition, RPS6KA1/RSK1 domain2) was -53.6%. The “KiNativ in-cell binding, AAK1” value [15] was -42.8, the “KiNativ in-cell binding, ULK3” value [16] was -25.0 and the inhibition at 2 µM [17] was -13%. For the same molecule, the inhibition at 2 µM [18] was 18.7%, the “KiNativ in-cell binding, STRADB” value [19] was 0.5 and the inhibition at 2 µM [20] was 15.6%. For the same molecule, the inhibition at 2 µM [21] was -2%.
